According to ChEMBL document CHEMBL1136491, “1-aryl-6,7-methylenedioxy-3H-quinazolin-4-ones as anticonvulsant agents” (Bioorg Med Chem Lett, 2003):

Legend:
Mus musculus [1] = experiment: Anticonvulsant activity against audiogenic tonus seizure 30 min after intraperitoneal administration (3.3-200 umol/kg) in DBA/2 mice; assay type: functional; settings: ip, 0.5 h
Mus musculus [2] = experiment: Anticonvulsant activity against audiogenic clonus seizure 30 min after intraperitoneal administration (3.3-200 umol/kg) in DBA/2 mice; assay type: functional; settings: ip, 0.5 h
[3] = biological target: Glutamate receptor ionotropic, AMPA (Rattus norvegicus, UniProt P19490+P19491+P19492+P19493); experiment: Ability to displace [3H]CP-526427 (3 nM) from binding site of the Ionotropic glutamate receptor AMPA in rat forebrain membrane; assay type: cell membranes
Mus musculus [4] = experiment: Anticonvulsant activity against audiogenic clonus seizure 15 min after intraperitoneal administration (3.3-200 umol/kg) in DBA/2 mice; assay type: functional; settings: ip, 0.25 h

Oc1nc(-c2ccc(F)cc2)nc2cc3c(cc12)OCO3
ED50 (Mus musculus [1]): 27.8 µmol/kg | ED50 (Mus musculus [2]): 32.7 µmol/kg | IC50 [3]: > 100 µM

Oc1nc(-c2ccc(Cl)cc2)nc2cc3c(cc12)OCO3
ED50 (Mus musculus [1]): 21.6 µmol/kg | ED50 (Mus musculus [2]): 36.5 µmol/kg | IC50 [3]: > 100 µM

Oc1nc(-c2ccc(Br)cc2)nc2cc3c(cc12)OCO3
ED50 (Mus musculus [1]): 36.6 µmol/kg | ED50 (Mus musculus [2]): 68.3 µmol/kg

Nc1ccc(-c2nc(O)c3cc4c(cc3n2)OCO4)cc1
ED50 (Mus musculus [1]): 17.7 µmol/kg | ED50 (Mus musculus [2]): 27.8 µmol/kg | IC50 [3]: > 100 µM

Nc1ccc(-c2nc(S)c3cc4c(cc3n2)OCO4)cc1
ED50 (Mus musculus [4]): 79.4 µmol/kg | ED50 (Mus musculus [1]): 17.9 µmol/kg | ED50 (Mus musculus [2]): 37.8 µmol/kg

Oc1nc(-c2ccccc2)nc2cc3c(cc12)OCO3
ED50 (Mus musculus [1]): 46.1 µmol/kg | ED50 (Mus musculus [2]): 59.5 µmol/kg | IC50 [3]: > 100 µM

O=C1Cc2cc3c(cc2C(c2ccc(F)cc2)=NN1)OCO3
ED50 (Mus musculus [1]): 63.8 µmol/kg | ED50 (Mus musculus [2]): 89.8 µmol/kg

Nc1ccc(-c2nnc(O)c3cc4c(cc23)OCO4)cc1
IC50 [3]: > 100 µM
